“Also recorded” adds a separate entry of the source.
Legend:
HeLa = experiment: Cellular effect in mammalian cells, HeLa; assay type: cell-based; settings: Homo sapiens
MCF-7 = experiment: Cellular effect in mammalian cells, MCF-7; assay type: cell-based; settings: Homo sapiens, MCF7
H460 = experiment: Cellular effect in mammalian cells, H460; assay type: cell-based; settings: Homo sapiens, NCI-H460
Jurkat = experiment: Cellular effect in mammalian cells, Jurkat; assay type: cell-based; settings: Homo sapiens
THP-1 = experiment: Cellular effect in mammalian cells, THP-1; assay type: cell-based; settings: Homo sapiens
K562 = experiment: Cellular effect in mammalian cells, K562; assay type: cell-based; settings: Homo sapiens
HCT116 = experiment: Cellular effect in mammalian cells, HCT116; assay type: cell-based; settings: Homo sapiens, HCT-116
HepG2 = experiment: Cellular effect in mammalian cells, HepG2; assay type: cell-based; settings: Homo sapiens
HT29 = experiment: Cellular effect in mammalian cells, HT29; assay type: cell-based; settings: Homo sapiens, HT-29
MRC-5 = experiment: Cellular effect in mammalian cells, MRC-5; assay type: cell-based; settings: Homo sapiens, MRC5
L02 = experiment: Cellular effect in mammalian cells, L02; assay type: cell-based; settings: Homo sapiens
CDK2 = CDK2 (Homo sapiens, UniProt P24941); experiment: Kinase assay CDK2; settings: read-out: Target biochemical activity IC50, CDK2
CDK7 = CDK7 (Homo sapiens, UniProt P50613); experiment: Kinase assay CDK7; settings: read-out: Target biochemical activity IC50, CDK7
CDK7, sequence (P50613 whole entry, species assumed): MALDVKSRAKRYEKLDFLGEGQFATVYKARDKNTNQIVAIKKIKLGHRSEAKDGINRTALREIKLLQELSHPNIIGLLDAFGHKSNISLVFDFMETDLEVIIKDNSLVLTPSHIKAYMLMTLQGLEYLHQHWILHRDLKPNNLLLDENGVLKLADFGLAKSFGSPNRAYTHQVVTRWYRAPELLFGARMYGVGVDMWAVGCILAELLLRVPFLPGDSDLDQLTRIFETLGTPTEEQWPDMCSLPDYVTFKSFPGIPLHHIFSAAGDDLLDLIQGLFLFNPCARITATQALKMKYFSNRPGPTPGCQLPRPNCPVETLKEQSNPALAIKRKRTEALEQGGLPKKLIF
CDK7, sequence (P51946 whole entry partner, species assumed): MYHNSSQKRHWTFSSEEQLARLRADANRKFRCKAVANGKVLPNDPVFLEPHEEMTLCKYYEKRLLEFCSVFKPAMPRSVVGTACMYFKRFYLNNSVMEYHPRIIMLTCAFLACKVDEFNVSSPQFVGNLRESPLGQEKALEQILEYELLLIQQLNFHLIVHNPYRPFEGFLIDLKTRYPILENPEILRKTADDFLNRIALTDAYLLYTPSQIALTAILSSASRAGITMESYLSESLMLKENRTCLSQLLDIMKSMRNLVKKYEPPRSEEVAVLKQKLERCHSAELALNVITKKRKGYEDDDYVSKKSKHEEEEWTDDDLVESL
CDK7, sequence (P51948 whole entry partner, species assumed): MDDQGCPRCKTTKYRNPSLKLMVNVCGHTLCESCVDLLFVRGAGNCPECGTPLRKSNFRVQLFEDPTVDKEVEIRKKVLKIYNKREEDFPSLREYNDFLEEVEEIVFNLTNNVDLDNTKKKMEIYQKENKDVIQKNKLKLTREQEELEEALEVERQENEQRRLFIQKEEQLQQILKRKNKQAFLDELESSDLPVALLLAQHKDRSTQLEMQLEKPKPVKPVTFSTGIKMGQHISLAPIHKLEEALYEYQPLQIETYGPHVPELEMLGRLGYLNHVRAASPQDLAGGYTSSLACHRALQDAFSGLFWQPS

SRC = SRC (Homo sapiens, UniProt P12931); experiment: Kinase assay SRC; settings: read-out: Target biochemical activity IC50, SRC
SRC, sequence (P12931 whole entry, species assumed): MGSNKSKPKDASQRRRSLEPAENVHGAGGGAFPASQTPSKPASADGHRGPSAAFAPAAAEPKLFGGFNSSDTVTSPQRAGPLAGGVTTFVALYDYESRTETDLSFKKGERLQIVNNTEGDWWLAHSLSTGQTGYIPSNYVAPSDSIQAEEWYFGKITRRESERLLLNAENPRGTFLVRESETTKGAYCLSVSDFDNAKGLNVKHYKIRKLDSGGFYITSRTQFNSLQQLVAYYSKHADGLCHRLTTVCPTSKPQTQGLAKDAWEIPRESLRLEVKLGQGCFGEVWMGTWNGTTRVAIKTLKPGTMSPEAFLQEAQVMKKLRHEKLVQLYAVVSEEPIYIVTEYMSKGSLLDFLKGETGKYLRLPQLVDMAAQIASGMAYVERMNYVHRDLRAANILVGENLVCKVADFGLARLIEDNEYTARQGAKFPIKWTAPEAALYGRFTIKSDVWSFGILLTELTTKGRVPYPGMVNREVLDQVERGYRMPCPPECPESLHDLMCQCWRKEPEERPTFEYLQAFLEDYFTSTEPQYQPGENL

TSSK1 = biological target: T1, TSSK1 (Homo sapiens, UniProt Q9BXA7); experiment: Kinase assay TSSK1; settings: read-out: Target biochemical activity IC50, TSSK1
T1 sequence (Q9BXA7 1-367): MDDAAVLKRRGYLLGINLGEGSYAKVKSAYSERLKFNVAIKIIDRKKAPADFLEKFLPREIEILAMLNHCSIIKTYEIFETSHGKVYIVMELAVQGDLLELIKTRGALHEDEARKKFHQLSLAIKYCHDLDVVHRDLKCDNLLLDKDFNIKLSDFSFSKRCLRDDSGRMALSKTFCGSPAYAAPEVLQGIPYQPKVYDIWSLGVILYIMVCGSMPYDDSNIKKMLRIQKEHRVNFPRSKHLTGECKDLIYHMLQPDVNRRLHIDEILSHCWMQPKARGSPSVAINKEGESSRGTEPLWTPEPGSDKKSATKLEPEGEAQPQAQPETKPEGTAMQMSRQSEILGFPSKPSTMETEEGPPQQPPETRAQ

Aurora B = Aurora B (Homo sapiens, UniProt Q96GD4); experiment: Kinase assay Aurora B; settings: read-out: Target biochemical activity IC50, Aurora B
Aurora B, sequence (Q96GD4 whole entry): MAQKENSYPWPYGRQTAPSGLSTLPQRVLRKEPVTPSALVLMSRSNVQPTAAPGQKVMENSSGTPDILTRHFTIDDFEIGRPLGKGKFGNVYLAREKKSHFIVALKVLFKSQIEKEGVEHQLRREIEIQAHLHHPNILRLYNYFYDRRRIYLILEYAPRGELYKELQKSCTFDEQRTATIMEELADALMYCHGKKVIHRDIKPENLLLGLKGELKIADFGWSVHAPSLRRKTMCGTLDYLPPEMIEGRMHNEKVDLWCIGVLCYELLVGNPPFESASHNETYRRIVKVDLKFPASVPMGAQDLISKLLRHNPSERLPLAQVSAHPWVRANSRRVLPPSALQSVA

MCF-7 cells = experiment: Cell apoptosis assay (TUNEL, PARP Western blot); assay type: cell-based; settings: 48 hours, TUNEL and PARP Western blot
Method: (§1) MCF-7 cells were treated with compound 18 (F200) and Roscovitine for 48 hours. Then the cells were analyzed by TUNEL assay and Western blot to detect apoptosis.
For TUNEL assay, cells were fixed and blocking in 6-well plate. DNA strand breaks were labeled by terminal deoxynucleotidyl transferase (TdT), which catalyzed polymerization of labeled nucleotides to free 3′-OH DNA ends in template-independent manner Fluorescein could be detected by anti-fluorescein antibody, conjugated with horse-radish-peroxidase (POD). After DAB reaction, stained cells were analyzed and counted under light microscope.
(§2) For Western blot, cells were harvested and lysed by lysis buffer. Western blot were performed with anti-PARP or anti-Pol[…] II antibody. During apoptosis, PARP is cleaved from a 113KD intact form into smaller 89KD and 24KD fragments.

[1] = tested on: CDK9's activity on Pol II phosphorylation; experiment: Western blot of Pol II phosphorylation; assay type: cell-based; settings: MCF-7 cells, 48 hours
Method: as §1, §2

[2] = Preliminary toxicology study in mice (acute toxicity); assay type: in vivo; settings: mouse, in vivo, po, p.o. (gavage), two weeks
Method: (§3) Preliminary toxicology study in mice: Mice were divided into four groups (n=10 in each), 500 mg/kg, 1,000 mg/kg or 2,000 mg/kg were administered respectively to three groups by gavage. Negative control is 0.5% CMC-Na. After two weeks, mice were sacrificed and tissue section of visceral organs were analyzed by Hematoxylin-Eosin staining

mice = experiment: as above; assay type: in vivo; settings: p.o.
Method: as §3

[3] = PK profile: rat IV/PO study; assay type: in vivo; settings: oral administration
lung carcinoma (H460) = experiment: Tumor growth inhibition, H460 xenograft; assay type: in vivo, SCID-bg mice; settings: 150 mg/kg, oral administration
Method: Animal: SCID-bg mice Tumor type: lung carcinoma (H460) Treatment: Single PO dose for 21 days (starting at day 7 following tumor inoculation) Endpoint: tumor volume and mean luciferase activity by Xenogen (Caliper) machine: SCID-bg mice were implanted with NCI-H460 cells at 5×10^6 cells/mouse on Day 0. Compound 18 treatment began on Day 7. […] In model group, the vehicle was used instead of compound 18. Tumor volume and mean luciferase activity by Xenogen technology were measured once per there days.

rabbit neutrophils = experiment: Induction of neutrophil apoptosis (Annexin-V and PI staining); assay type: cell-based
Method: • 1. Acquire 5-10 ml blood from adult rabbit • 2. Isolate neutrophils using RED BLOOD CELL LYSING BUFFER (SIGMA Cat No. R7757) and rabbit isolation kit (TBDsciences, Cat No. LZS11133) • 3. Treat neutrophils with reference compounds or SG45 for 15 h • 4. Apoptosis assay (Annexin-V and PI staining)
Harvest neutrophils by centrifugation at 1,000 rpm, 4° C. for 7 min Remove culture medium after centrifugation. Wash the cell pellet with pre-cooled PBS 200 l once. The re-suspend the cells with pre-cooled PBS 100 l. Incubate the cells with 2 l dye PI (BD Biosciences. Cat. No. 556463) and 2 l anti-Annexin V-PE (BD Biosciences. Cat. No. 556421) at room temperature under the darkness for 30 minutes. Remove the antibodies by centrifugation at 1,000 rpm, 4° C. for 2 min Resuspend the cells in 200 l pre-cooled PBS Finally, load the cell suspension to the FACS machine to acquire the staining results: […]

Row | Structure (SMILES) | IC50 (HeLa) | IC50 (MCF-7) | IC50 (Jurkat) | IC50 (THP-1) | IC50 (K562) | IC50 (HCT116) | IC50 (HT29) | IC50 (TSSK1) | IC50 (MRC-5) | IC50 (L02) | further results
1 | CCn1cc(-c2ccnc(Nc3ccc(O)cc3)n2)c2ccnc(Cl)c21 [SG49, 4-(4-(7-Chloro-1-ethyl-1H-pyrrolo[2,3-c]pyridin-3-yl)pyrimidin-2-ylamino)phenol] | 2690 nM | > 10 µM | 610 nM | 3.68 µM | 3.52 µM | 4.28 µM | 8590 nM | – | 5.82 µM | 7.34 µM | IC50 (H460): 2.95 µM; IC50 (HepG2): 5.55 µM
2 | CCCn1cc(-c2ccnc(Nc3ccc(C)c(S(=O)(=O)N4CCOCC4)c3)n2)c2ccncc21 [SG52, N-(4-Methyl-3-(morpholinosulfonyl)phenyl)-4-(1-propyl-1H-pyrrolo[2,3-c]pyridin-3-yl)pyrimidin-2-amine] | – | – | – | – | – | – | – | – | – | 1.4 µM | –
3 | CCn1cc(-c2ccnc(Nc3cccc(O)c3)n2)c2ccnc(Cl)c21 [SG48, 3-(4-(7-Chloro-1-ethyl-1H-pyrrolo[2,3-c]pyridin-3-yl)pyrimidin-2-ylamino)phenol] | 3310 nM | 9.4 µM | 1920 nM | > 10 µM | 4.75 µM | 4.67 µM | 8310 nM | 140 nM | > 10 µM | 8.1 µM | IC50 (CDK2): 4 nM; IC50 (CDK7): 3.28 µM; IC50 (SRC): > 10 µM; IC50 (H460): 4.66 µM; IC50 (HepG2): 6.1 µM
4 | CCCn1cc(-c2ccnc(Nc3ccc(S(N)(=O)=O)cc3)n2)c2nc(Cl)cc(C)c21 [SG54, 4-(4-(5-Chloro-7-methyl-1-propyl-1H-pyrrolo[3,2-b]pyridin-3-yl)pyrimidin-2-ylamino)benzenesulfonamide] | – | – | – | – | – | – | – | – | – | 8.37 µM | –
5 | CCn1cc(-c2ccnc(Nc3cccc(S(N)(=O)=O)c3)n2)c2cccnc21 [Compound 18, 3-(4-(1-Ethyl-1H-pyrrolo[2,3-b]pyridin-3-yl)pyrimidin-2-ylamino)benzenesulfonamide] | – | – | – | 5.3 µM | – | – | 590 nM | > 10000 nM | – | 4.3 µM | Induction of cell apoptosis (MCF-7 cells): induced apoptosis of cells; also recorded: induced cell apoptosis with dose-dependent manner; Inhibition of CDK9's activity on Pol II phosphorylation [1]: inhibited CDK9's activity on Pol II phosphorylation; LD50 at 2 weeks [2]: > 2000 mg/kg; MTD at 2 weeks [2]: > 500 mg/kg; Tolerability in animals (mice): excellent tolerability in animals; Oral availability (in words) [3]: good oral availability; Tumor growth inhibition (in words) (lung carcinoma (H460)): able to inhibit tumor growth; Induction of neutrophil apoptosis compared with Roscovitine (rabbit neutrophils; 15 h, FIG. 5): stronger capability in inducing neutrophil apoptosis than Roscovitine; Apoptotic morphological changes of neutrophils (rabbit neutrophils; increasing dose (0.5, 2, 10 μM), FIG. 4): typical apoptotic morphological changes

Now from value to molecule, other results behind:

Row | IC50 (HeLa) | IC50 (MCF-7) | IC50 (Jurkat) | IC50 (THP-1) | IC50 (K562) | IC50 (HCT116) | IC50 (HT29) | IC50 (TSSK1) | Structure (SMILES) | IC50 (MRC-5) | IC50 (L02) | further results
6 | – | – | – | – | – | 3.56 µM | 250 nM | – | CCCn1cc(-c2ccnc(Nc3cccc(S(N)(=O)=O)c3)n2)c2nc(Cl)cc(C)c21 [SG53, 3-(4-(5-Chloro-7-methyl-1-propyl-1H-pyrrolo[3,2-b]pyridin-3-yl)pyrimidin-2-ylamino)benzenesulfonamide] | – | – | –
7 | – | – | 5 nM | – | – | – | – | – | CCCn1cc(-c2ccnc(Nc3cccc(S(N)(=O)=O)c3)n2)c2ccncc21 [SG51, 3-(4-(1-Propyl-1H-pyrrolo[2,3-c]pyridin-3-yl)pyrimidin-2-ylamino)benzenesulfonamide] | – | – | –
8 | 230 nM | 0.45 µM | 400 nM | – | 0.61 µM | 0.28 µM | 1160 nM | 520 nM | CCn1cc(-c2ccnc(Nc3cccc(S(N)(=O)=O)c3)n2)c2ccnc(Cl)c21 [SG50, 3-(4-(7-Chloro-1-ethyl-1H-pyrrolo[2,3-c]pyridin-3-yl)pyrimidin-2-ylamino)benzenesulfonamide] | 3.36 µM | – | IC50 (CDK2): 4 nM; IC50 (CDK7): > 10 µM; IC50 (Aurora B): > 10 µM; IC50 (SRC): > 10 µM
